Results reported in patent US20180264001A1 (Teva Pharmaceuticals International GmbH, priority 2015, published 2018).

Conditions: Canine plasma +1% Tocophersolan, 37° C.
Procedure: Samples were protected from light under constant agitation using a vortex mixer. The stability of the API under these conditions was assessed at timed intervals (T=0, 2, 4, 21, 24 hours and 2 and 3 days).

Structure (SMILES): Cc1cc2c(s1)Nc1ccccc1N=C2N1CCN(C)CC1.O.O=C(O)c1cc2ccccc2c(Cc2c(O)c(C(=O)O)cc3ccccc23)c1O [olanzapine pamoate monohydrate]
- Concentration (saturated solubility): 0.81747 mg/mL
